Inhibition data for one molecule are collected here from ChEMBL document CHEMBL4800730 (2021).

One may read the inhibition as the relative decrease from the control value, in per cent.

SMILES strings stand for the structures.

The target in experiment [1] is Muscarinic acetylcholine receptor M4 (Homo sapiens) (UniProt P08173). Particulars: Compound concentration 10.0 uM.
Experiment [2] has as its target cAMP-dependent protein kinase catalytic subunit alpha (Homo sapiens) (UniProt P17612). The experiment in a line: PRKACA (PKA) SelectScreen Kinase panel (LifeTechnologies). To be noted: Compound concentration 1.0 uM.
Experiment [3] concerns the target Serine/threonine-protein kinase D1 (Homo sapiens) (UniProt Q15139). In words: PRKD1 (PKC mu) SelectScreen Kinase panel (LifeTechnologies). Particulars: Compound concentration 1.0 uM.
The target in experiment [4] is Ribosomal protein S6 kinase alpha-2 (Homo sapiens) (UniProt Q15349). In words: RPS6KA2 (RSK3) SelectScreen Kinase panel (LifeTechnologies). Particulars: Compound concentration 1.0 uM.
Sequence of Ribosomal protein S6 kinase alpha-2 (Homo sapiens) (Q15349 whole entry): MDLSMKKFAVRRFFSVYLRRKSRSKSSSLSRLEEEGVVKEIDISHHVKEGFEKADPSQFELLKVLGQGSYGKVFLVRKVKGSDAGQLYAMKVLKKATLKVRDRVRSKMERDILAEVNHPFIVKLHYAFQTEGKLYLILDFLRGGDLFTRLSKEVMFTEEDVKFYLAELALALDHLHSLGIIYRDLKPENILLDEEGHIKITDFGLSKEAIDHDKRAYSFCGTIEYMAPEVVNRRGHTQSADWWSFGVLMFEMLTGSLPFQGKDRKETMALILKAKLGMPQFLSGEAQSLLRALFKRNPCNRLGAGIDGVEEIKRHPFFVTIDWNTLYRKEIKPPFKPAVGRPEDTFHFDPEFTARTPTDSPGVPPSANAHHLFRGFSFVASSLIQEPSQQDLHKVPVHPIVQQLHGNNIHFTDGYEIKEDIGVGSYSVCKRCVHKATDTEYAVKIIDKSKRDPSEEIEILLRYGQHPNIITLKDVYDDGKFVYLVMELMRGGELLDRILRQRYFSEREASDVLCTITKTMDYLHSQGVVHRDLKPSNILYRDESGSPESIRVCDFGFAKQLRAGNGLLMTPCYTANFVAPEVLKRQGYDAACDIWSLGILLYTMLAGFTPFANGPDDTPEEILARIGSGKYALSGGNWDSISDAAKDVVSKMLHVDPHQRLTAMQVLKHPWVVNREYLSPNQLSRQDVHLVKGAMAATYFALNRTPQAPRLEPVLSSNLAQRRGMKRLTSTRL
For experiment [5], the species on record is Rattus norvegicus. Particulars: Compound concentration 10.0 uM.
The target of experiment [6] is Ribosomal protein S6 kinase alpha-6 (Homo sapiens) (UniProt Q9UK32). The experiment in a line: RPS6KA6 (RSK4) SelectScreen Kinase panel (LifeTechnologies). Particulars: Compound concentration 1.0 uM.
Sequence of Ribosomal protein S6 kinase alpha-6 (Homo sapiens) (Q9UK32 whole entry): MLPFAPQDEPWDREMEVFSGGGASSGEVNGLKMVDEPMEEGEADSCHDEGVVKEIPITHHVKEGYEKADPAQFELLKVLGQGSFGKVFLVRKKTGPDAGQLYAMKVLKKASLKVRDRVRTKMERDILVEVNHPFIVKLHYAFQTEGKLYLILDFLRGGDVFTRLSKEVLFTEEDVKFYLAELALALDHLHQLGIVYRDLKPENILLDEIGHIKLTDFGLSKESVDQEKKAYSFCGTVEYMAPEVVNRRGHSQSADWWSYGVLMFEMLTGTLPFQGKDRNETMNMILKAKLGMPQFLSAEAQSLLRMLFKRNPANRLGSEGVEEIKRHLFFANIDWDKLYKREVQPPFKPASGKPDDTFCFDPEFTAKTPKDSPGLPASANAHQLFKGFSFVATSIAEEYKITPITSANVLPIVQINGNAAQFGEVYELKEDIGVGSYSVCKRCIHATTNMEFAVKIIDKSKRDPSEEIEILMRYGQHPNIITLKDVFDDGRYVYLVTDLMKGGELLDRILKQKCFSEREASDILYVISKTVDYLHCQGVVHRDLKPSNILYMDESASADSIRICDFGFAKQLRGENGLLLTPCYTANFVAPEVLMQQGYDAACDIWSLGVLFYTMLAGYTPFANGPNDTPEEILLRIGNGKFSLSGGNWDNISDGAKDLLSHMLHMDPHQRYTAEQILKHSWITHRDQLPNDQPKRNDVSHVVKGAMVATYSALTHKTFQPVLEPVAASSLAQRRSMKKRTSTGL
The target of experiment [7] is Hepatocyte growth factor receptor (Homo sapiens) (UniProt P08581). The experiment in a line: MET (cMet) SelectScreen Kinase panel (LifeTechnologies). Particulars: Compound concentration 1.0 uM.
Sequence of Hepatocyte growth factor receptor (Homo sapiens) (P08581 whole entry): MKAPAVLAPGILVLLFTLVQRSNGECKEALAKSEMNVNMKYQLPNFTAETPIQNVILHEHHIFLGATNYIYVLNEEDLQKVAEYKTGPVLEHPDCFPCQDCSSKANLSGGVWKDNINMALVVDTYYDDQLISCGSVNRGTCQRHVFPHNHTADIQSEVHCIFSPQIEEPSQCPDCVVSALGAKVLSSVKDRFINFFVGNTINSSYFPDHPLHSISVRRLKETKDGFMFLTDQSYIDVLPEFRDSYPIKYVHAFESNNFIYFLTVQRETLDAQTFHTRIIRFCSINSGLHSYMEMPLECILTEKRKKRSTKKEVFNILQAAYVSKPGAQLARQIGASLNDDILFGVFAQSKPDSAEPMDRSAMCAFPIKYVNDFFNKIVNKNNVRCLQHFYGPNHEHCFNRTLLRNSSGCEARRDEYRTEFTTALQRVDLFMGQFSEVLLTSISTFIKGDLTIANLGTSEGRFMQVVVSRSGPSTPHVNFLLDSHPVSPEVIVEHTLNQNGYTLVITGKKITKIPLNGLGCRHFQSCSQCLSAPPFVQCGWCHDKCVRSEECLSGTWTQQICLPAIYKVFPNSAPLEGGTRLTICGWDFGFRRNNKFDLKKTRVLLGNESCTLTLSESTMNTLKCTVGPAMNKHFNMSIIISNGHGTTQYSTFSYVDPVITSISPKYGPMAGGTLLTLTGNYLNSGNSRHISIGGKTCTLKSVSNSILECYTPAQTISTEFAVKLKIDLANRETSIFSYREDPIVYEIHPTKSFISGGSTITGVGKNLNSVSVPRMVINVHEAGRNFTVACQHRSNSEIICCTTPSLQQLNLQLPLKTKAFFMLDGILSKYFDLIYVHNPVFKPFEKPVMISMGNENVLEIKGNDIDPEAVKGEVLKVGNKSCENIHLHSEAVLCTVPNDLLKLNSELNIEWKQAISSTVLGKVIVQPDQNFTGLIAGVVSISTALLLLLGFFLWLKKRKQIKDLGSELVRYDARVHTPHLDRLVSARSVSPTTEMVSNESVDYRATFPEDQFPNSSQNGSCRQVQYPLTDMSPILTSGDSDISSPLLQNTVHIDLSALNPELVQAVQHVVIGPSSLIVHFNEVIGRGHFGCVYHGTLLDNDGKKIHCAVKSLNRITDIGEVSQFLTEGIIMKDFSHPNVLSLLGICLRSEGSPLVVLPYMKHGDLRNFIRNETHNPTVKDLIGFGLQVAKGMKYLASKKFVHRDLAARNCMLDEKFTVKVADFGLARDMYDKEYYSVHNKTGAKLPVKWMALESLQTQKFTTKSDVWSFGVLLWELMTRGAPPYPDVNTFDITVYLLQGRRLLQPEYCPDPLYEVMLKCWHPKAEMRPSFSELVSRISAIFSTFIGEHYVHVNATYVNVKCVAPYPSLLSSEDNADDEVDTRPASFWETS
Experiment [8] has as its target MAP kinase-activated protein kinase 3 (Homo sapiens) (UniProt Q16644). The experiment in a line: MAPKAPK3 SelectScreen Kinase panel (LifeTechnologies). Particulars: Compound concentration 1.0 uM.

Sequence of Muscarinic acetylcholine receptor M4 (Homo sapiens) (P08173 whole entry): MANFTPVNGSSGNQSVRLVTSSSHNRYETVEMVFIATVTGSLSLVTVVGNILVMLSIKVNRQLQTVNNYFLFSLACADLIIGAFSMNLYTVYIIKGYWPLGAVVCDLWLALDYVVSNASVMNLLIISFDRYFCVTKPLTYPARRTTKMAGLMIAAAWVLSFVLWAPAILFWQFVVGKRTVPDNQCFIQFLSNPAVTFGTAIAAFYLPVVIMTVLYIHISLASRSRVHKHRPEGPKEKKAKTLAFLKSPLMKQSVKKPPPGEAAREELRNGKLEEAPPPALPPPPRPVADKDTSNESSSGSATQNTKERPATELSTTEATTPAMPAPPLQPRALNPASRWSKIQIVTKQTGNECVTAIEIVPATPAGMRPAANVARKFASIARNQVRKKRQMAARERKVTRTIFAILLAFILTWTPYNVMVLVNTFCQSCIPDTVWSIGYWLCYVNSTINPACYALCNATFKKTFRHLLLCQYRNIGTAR
Sequence of Serine/threonine-protein kinase D1 (Homo sapiens) (Q15139 whole entry): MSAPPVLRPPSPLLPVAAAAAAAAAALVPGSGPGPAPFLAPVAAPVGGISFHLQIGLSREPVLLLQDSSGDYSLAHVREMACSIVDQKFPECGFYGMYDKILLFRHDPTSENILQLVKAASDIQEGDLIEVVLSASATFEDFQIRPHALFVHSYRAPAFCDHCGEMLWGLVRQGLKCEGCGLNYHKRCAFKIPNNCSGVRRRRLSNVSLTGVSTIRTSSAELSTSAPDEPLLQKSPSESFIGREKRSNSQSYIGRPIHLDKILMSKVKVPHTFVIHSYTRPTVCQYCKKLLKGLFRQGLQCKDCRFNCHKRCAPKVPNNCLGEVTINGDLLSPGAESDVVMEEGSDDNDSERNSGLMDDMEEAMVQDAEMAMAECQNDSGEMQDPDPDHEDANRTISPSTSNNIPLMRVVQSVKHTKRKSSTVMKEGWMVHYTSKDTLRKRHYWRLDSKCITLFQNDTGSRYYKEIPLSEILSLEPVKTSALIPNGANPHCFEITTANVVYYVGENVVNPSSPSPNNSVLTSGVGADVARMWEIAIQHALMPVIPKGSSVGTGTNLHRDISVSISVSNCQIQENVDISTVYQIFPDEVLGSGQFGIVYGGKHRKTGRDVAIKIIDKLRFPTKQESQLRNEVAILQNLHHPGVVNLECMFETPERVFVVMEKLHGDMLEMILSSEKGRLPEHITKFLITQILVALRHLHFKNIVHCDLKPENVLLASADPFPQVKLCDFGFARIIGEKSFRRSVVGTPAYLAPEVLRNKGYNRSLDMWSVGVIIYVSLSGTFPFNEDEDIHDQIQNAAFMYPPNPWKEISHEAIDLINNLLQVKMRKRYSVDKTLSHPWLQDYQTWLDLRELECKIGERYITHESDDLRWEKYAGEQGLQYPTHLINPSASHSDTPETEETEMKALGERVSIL
Sequence of MAP kinase-activated protein kinase 3 (Homo sapiens) (Q16644 whole entry, looked up): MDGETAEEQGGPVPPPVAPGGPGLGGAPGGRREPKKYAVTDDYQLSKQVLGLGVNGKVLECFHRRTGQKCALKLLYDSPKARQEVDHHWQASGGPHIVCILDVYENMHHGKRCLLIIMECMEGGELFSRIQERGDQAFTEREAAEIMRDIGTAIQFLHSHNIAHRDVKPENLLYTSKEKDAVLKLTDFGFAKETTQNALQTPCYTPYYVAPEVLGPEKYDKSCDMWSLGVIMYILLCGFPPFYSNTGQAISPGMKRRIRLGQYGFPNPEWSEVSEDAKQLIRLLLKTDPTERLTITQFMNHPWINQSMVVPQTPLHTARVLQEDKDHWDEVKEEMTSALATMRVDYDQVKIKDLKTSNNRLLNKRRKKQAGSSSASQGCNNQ

`C=CC(=O)Nc1ccc2[nH]c(=O)n(C3CCN(Cc4ccc(-c5nc6cc[nH]c(=O)c6cc5-c5ccccc5)cc4)CC3)c2c1` [Borussertib]: the inhibition in experiment [1] was -7.81%; in experiment [2], -3%; in experiment [3] it was 10%; in experiment [4], 14%; in experiment [5], 72.3%; in experiment [6], 14%. For the same molecule, the figures for the inhibition in experiment [7] and in experiment [8] were -2% and 17%, respectively.
